A value given as a limit tells only on which side of the number the result lay.

The test deals with IMPDH human type II (Homo sapiens, UniProt P12268). The test is described as follows: IMPDH Activity Inhibition Assay. Format: biochemical. As to conditions: spectrophotometric NADH formation at 340 nm, 37° C., tight-binding equation of Henderson. On the procedure: IMP dehydrogenase activity was assayed following an adaptation of the method first reported by Magasanik. [B. Magasanik et al., J. Biod. Chem., 226, p. 339 (1957), the disclosure of which is herein incorporated by reference]. Enzyme activity was measured spectrophotometrically, by monitoring the increase in absorbance at 340 nm due to the formation of NADH (ε340 is 6220 M^−1 cm^−1). The reaction mixture contained 0.1 M Tris pH 8.0, 0.1 M KCl, 3 mM EDTA, 2 mM DTT, […] and enzyme (IMPDH human type II) at a concentration of 15 to 50 nM. This solution is incubated at 37° C. for 10 minutes. The reaction is started by adding NAD to a final concentration of […] and the initial rate is measured by following the linear increase in absorbance at 340 nm for 10 minutes. For reading in a standard spectrophotometer (path length 1 cm) the final volume in the cuvette is 1.0 ml. The assay has also been adapted to a 96 well microtiter plate format; in this case the concentrations of all the reagents remain the same and the final volume is decreased to 200 μl.
For the analysis of inhibitors, the compound in question is dissolved in DMSO to a final concentration of 20 mM and added to the initial assay mixture for preincubation with the enzyme at a final volume of 2-5% (v/v). The reaction is started by the addition of NAD, and the initial rates measured as above. Ki determinations are made by measuring the initial, velocities in the presence of varying amounts of inhibitor and fitting the data using the tight-binding equation of Henderson (Henderson, P. J. F. (1972) Biochem. J. 127, 321].
Regarding `COc1ccccc1NC(=O)c1cc2cc(Br)ccc2cc1OCc1ccccc1` [Compound 141], the Ki is < 10 µM.

Regarding `COc1ccc(OC)c(S(=O)(=O)Nc2cccc(Cl)c2)c1` [Compound 320], the Ki lay within 10 to 20 µM.

Take `CCOc1cccc(NC(=O)c2cc3ccccc3cc2O)c1` [Compound 168]: the Ki fell in the range of 10 to 20 µM.

Turning to `COc1ccc(OC)c(S(=O)(=O)Nc2ccc(C#N)cc2)c1` [Compound 310], the Ki lay in the range of 10 to 20 µM.

Consider `O=[N+]([O-])c1cccc(S(=O)(=O)Nc2ccc(-c3cnco3)cc2)c1` [Compound 300], for which the Ki was 10 to 20 µM.

With `O=C(Nc1ccc(F)cc1)Sc1ccccc1O` [Compound 303], the Ki was > 20 µM.

Take `COc1cc(NC(=O)Cc2cccc(CNC(=O)O[C@H]3CCOC3)c2)ccc1-c1cnco1` [Compound 325]: the Ki is < 10 µM.

As to `COc1cc(NC(=O)c2cccc(CNC(=O)O[C@H]3CCOC3)c2)ccc1-c1cnco1` [Compound 102], the Ki was < 10 µM.

Turning to `CCCC(=O)Oc1cc2ccccc2cc1C(=O)Nc1ccc(-c2cnco2)c(OC)c1` [Compound 114], the Ki is < 10 µM.

For the molecule `O=C(Nc1ccccc1Br)c1cc2ccccc2cc1O` [Compound 129], the Ki was 10 to 20 µM.

As to `COc1ccc(C(F)(F)F)cc1NC(=O)c1cc2ccccc2cc1O` [Compound 180], the Ki was 10 to 20 µM.

As for `COc1ccccc1S(=O)(=O)Nc1ccccc1O` [Compound 324], the Ki fell in the range of 10 to 20 µM.

`COc1ccc(C)cc1NC(=O)c1ccc2ccccc2c1O` [Compound 191]: the Ki is > 20 µM.

Turning to `COc1ccccc1NC(=O)c1cccc(OC)c1O` [Compound 157], the Ki was 10 to 20 µM.

In turn, `C=CCN(C(=O)c1cc2ccccc2cc1O)c1ccccc1OC` [Compound 106] showed a Ki of 10 to 20 µM.

For the molecule `COc1ccccc1NS(=O)(=O)c1ccc2ccccc2c1` [Compound 302], the Ki was 10 to 20 µM.

Take `O=C(Nc1ccccc1O)c1ccc2ccccc2c1O` [Compound 192]: the Ki is > 20 µM.

`COc1ccccc1NC(=O)c1ccc2c(c1)OCO2` [Compound 134] showed a Ki of 10 to 20 µM.

With `O=C(Nc1ccc(Br)cc1)c1cc2ccccc2cc1O` [Compound 131], the Ki was 10 to 20 µM.

For the molecule `O=C(Nc1ccc(Oc2ccccc2)cc1)c1cc2ccccc2cc1O` [Compound 185], the Ki is < 10 µM.

The molecule `COc1ccc(OC)c(S(=O)(=O)Nc2ccccc2[N+](=O)[O-])c1` [Compound 317] came in with a Ki of 10 to 20 µM.

Turning to `COc1cc(NC(=O)c2cccc(CCNC(=O)O[C@H]3CCOC3)c2)ccc1-c1cnco1` [Compound 109], the Ki is < 10 µM.

Turning to `COc1ccccc1NC(=O)c1ccc(C)cc1O` [Compound 197], the Ki is > 20 µM.

Turning to `COc1ccc(C)cc1NC(=O)c1cc2ccccc2cc1O` [Compound 178], the Ki was < 10 µM.

`COc1ccc(Br)cc1S(=O)(=O)Nc1cc2ccccc2cc1O` [Compound 319] had a Ki of 10 to 20 µM.

Molecule `COc1ccccc1NC(=O)c1cc2ccccc2cc1N` [Compound 142] registered a Ki of 10 to 20 µM.

With `COc1cc2c(cc1NC(=O)c1cc3ccccc3cc1O)oc1ccccc12` [Compound 172], the Ki was < 10 µM.

In the case of `N#Cc1ccccc1NC(=O)c1cc2ccccc2cc1O` [Compound 144], the Ki lay in the range of 10 to 20 µM.

Molecule `CCCCC(=O)Oc1cc2ccccc2cc1C(=O)Nc1ccccc1OC` [Compound 148] displayed a Ki of 10 to 20 µM.

With `COc1ccc(C)cc1NC(=O)Sc1ccccc1O` [Compound 306], the inhibition constant Ki lay within 10 to 20 µM.

Regarding `Cc1ccc(NC(=O)c2cc3ccccc3cc2O)cc1` [Compound 121], the Ki was 10 to 20 µM.

As to `O=C(Nc1ccccc1Cl)c1cc2ccccc2cc1O` [Compound 155], the Ki fell in the range of 10 to 20 µM.

Consider `COc1ccc(Br)cc1S(=O)(=O)Nc1ccccc1O` [Compound 323], for which the inhibition constant Ki lay in the range of 10 to 20 µM.

`COc1ccccc1NS(=O)(=O)c1cc(Cl)cc(Cl)c1O` [Compound 321] came in with a Ki of 10 to 20 µM.

Turning to `O=C(Nc1ccc(OC(F)(F)F)cc1)c1cc2ccccc2cc1O` [Compound 136], the Ki was 10 to 20 µM.

`O=C(Nc1cccc(F)c1)c1cc2ccccc2cc1O` [Compound 163]: the Ki fell in the range of 10 to 20 µM.

Regarding `CCCC(=O)Oc1cc2ccccc2cc1C(=O)Nc1ccc(C)cc1` [Compound 118], the Ki lay within 10 to 20 µM.

As for `COc1cccc(NC(=O)c2cc3ccccc3cc2O)c1` [Compound 119], the inhibition constant (Ki) was > 20 µM.

In the case of `N#Cc1cccc(NC(=O)c2cc3ccccc3cc2O)c1` [Compound 145], the Ki was in the range of 10 to 20 µM.

With `O=C(Nc1cccc(Br)c1)c1cc2ccccc2cc1O` [Compound 130], the Ki lay within 10 to 20 µM.

As for `COc1ccc(OC)c(S(=O)(=O)Nc2cccc([N+](=O)[O-])c2)c1` [Compound 307], the Ki was 10 to 20 µM.

`COc1ccccc1C(=O)Nc1ccccc1O` [Compound 195] gave a Ki of 10 to 20 µM.

With `COc1ccc(C)cc1NC(=O)c1ccc(C)cc1O` [Compound 198], the Ki was > 20 µM.

Molecule `COc1ccc(Br)cc1S(=O)(=O)Oc1cc2ccccc2cc1N` [Compound 318] yielded a Ki of 10 to 20 µM.

Molecule `COc1ccc(OC)c(S(=O)(=O)Nc2ccc(-c3ncon3)cc2)c1` [Compound 316] registered a Ki of 10 to 20 µM.

Consider `COc1cccc(NC(=O)c2cc3ccccc3cc2O)c1OC` [Compound 184], for which the Ki lay in the range of 10 to 20 µM.

As to `CCOc1ccccc1NC(=O)c1cc2ccccc2cc1O` [Compound 167], the Ki is 10 to 20 µM.

Regarding `O=C(Nc1cccnc1)c1cc2ccccc2cc1O` [Compound 304], the Ki was > 20 µM.

With `COc1ccccc1C(=O)Nc1cc2ccccc2cc1O` [Compound 139], the Ki is < 10 µM.

As for `CSc1ccc(NC(=O)c2cc3ccccc3cc2O)cc1` [Compound 175], the Ki is < 10 µM.

For the molecule `COc1cc(NC(=O)c2cc3ccccc3cc2O)ccc1-c1cnco1` [Compound 126], the Ki was < 10 µM.

As for `COc1ccc(OC)c(S(=O)(=O)Nc2cccc(Br)c2)c1` [Compound 313], the Ki fell in the range of 10 to 20 µM.

As for `COc1ccccc1C(=O)Nc1cc2ccccc2cc1OC(=O)c1ccccc1OC` [Compound 138], the Ki was < 10 µM.

`COc1ccc(NC(=O)c2cc3ccccc3cc2O)cc1` [Compound 120]: the Ki was in the range of 10 to 20 µM.

Turning to `COc1ccc(OC)c(S(=O)(=O)Nc2ccccc2C#N)c1` [Compound 312], the Ki lay within 10 to 20 µM.

`COc1ccccc1NC(=O)c1cc2ccccc2cc1NC(=O)C(F)(F)F` [Compound 137]: the inhibition constant Ki is 10 to 20 µM.

Turning to `COc1cc(NC(=O)Oc2cccc(CNC(=O)O[C@H]3CCOC3)c2)ccc1-c1cnco1` [Compound 326], the Ki is < 10 µM.

Turning to `COc1ccc(NC(=O)c2cc3ccccc3cc2O)cc1OC` [Compound 187], the Ki lay in the range of 10 to 20 µM.

Regarding `Cc1ccccc1NC(=O)c1cc2ccccc2cc1O` [Compound 132], the Ki was 10 to 20 µM.

As for `Cc1ccc(C(=O)Nc2ccccc2O)c(O)c1` [Compound 199], the Ki was > 20 µM.

For the molecule `CCCCC(=O)Oc1cc2ccc(Br)cc2cc1C(=O)Nc1ccccc1OC` [Compound 153], the Ki is < 10 µM.

The molecule `Cc1ccc(C(=O)Nc2ccccc2Oc2ccccc2)c(O)c1` [Compound 200] had a Ki of 10 to 20 µM.

Regarding `COc1ccccc1NC(=O)c1cc2cc(Br)ccc2cc1OC(C)=O` [Compound 104], the Ki was in the range of 10 to 20 µM.

Turning to `COc1ccccc1NCc1cc2cc(Br)ccc2cc1O` [Compound 115], the Ki was < 10 µM.

Consider `O=S(=O)(Nc1ccc(-c2cnco2)cc1)c1ccccc1` [Compound 301], for which the Ki was 10 to 20 µM.

Regarding `COc1ccccc1NC(=O)c1cc(Br)ccc1O` [Compound 201], the Ki is 10 to 20 µM.

In turn, `CCCC(=O)Oc1cc2ccccc2cc1C(=O)Nc1ccccc1OC` [Compound 101] had a Ki of 10 to 20 µM.

Take `COc1ccccc1NC(=O)c1cc2ccccc2cc1OC(=O)C(C)(C)C` [Compound 112]: the Ki is 10 to 20 µM.

Molecule `COc1ccc(OC)c(NC(=O)c2cc3ccccc3cc2O)c1` [Compound 179] yielded a Ki of 10 to 20 µM.

`O=C(Nc1ccccc1Oc1ccccc1)c1ccc2ccccc2c1O` [Compound 193] had a Ki of 10 to 20 µM.

As for `O=C(Nc1ccc(Cl)cc1)c1cc2ccccc2cc1O` [Compound 161], the Ki was < 10 µM.

With `CCC(=O)Oc1cc2ccc(Br)cc2cc1C(=O)Nc1ccccc1OC` [Compound 127], the Ki was < 10 µM.

Regarding `CCCC(=O)Oc1cc2ccccc2cc1C(=O)Nc1ccc(C#N)c(OC)c1` [Compound 113], the Ki was < 10 µM.

`COc1cc(OC)c(NC(=O)c2cc3ccccc3cc2O)cc1Cl` [Compound 171] showed a Ki of 10 to 20 µM.

For `COc1ccc(C)cc1NC(=O)c1cc(Br)ccc1O` [Compound 202], the Ki is > 20 µM.

With `C=CCOc1cc2ccc(Br)cc2cc1C(=O)Nc1ccccc1OC` [Compound 140], the Ki is < 10 µM.

For `COc1cccc(OC)c1S(=O)(=O)Nc1ccc(C(C)(C)C)cc1` [Compound 311], the Ki lay in the range of 10 to 20 µM.

The molecule `O=C(Nc1ccccc1C(F)(F)F)c1cc2ccccc2cc1O` [Compound 128] had a Ki of 10 to 20 µM.

Values taken from US6653309B1, “Inhibitors of IMPDH enzyme technical field of the invention” (Vertex Pharmaceuticals Incorporated, priority 1999, dated 2003).
